Read-outs that look alike come from different tables or passages of the source. Values belong to the molecule of their own block, whether it stands above or below them. Where a SMILES comes first, the peptide text is derived from it. Bridges are numbered along the chain shown (N, C = ends).
How the values were obtained:
[1] = biological target: T1, angiotensin converting enzyme (ACE) (Oryctolagus cuniculus, UniProt P12822); assay: ACE inhibition assay with HHL substrate (Hayakari method); assay type: biochemical; conditions: rabbit lung ACE; for inhibition at 100 µM: pH 8.3, read-out: Highest ACE-inhibitory value; for IC50: sodium phosphate pH 8.3, 37 °C, 10 min pre-incubation, 45 min reaction, absorbance 382 nm, non-linear fit, triplicate, read-out: IC50 against ACE
T1 construct: ACE stock solution was obtained from rabbit lung; from tissue; host or cells: rabbit lung
T1 sequence (P12822 34-1310): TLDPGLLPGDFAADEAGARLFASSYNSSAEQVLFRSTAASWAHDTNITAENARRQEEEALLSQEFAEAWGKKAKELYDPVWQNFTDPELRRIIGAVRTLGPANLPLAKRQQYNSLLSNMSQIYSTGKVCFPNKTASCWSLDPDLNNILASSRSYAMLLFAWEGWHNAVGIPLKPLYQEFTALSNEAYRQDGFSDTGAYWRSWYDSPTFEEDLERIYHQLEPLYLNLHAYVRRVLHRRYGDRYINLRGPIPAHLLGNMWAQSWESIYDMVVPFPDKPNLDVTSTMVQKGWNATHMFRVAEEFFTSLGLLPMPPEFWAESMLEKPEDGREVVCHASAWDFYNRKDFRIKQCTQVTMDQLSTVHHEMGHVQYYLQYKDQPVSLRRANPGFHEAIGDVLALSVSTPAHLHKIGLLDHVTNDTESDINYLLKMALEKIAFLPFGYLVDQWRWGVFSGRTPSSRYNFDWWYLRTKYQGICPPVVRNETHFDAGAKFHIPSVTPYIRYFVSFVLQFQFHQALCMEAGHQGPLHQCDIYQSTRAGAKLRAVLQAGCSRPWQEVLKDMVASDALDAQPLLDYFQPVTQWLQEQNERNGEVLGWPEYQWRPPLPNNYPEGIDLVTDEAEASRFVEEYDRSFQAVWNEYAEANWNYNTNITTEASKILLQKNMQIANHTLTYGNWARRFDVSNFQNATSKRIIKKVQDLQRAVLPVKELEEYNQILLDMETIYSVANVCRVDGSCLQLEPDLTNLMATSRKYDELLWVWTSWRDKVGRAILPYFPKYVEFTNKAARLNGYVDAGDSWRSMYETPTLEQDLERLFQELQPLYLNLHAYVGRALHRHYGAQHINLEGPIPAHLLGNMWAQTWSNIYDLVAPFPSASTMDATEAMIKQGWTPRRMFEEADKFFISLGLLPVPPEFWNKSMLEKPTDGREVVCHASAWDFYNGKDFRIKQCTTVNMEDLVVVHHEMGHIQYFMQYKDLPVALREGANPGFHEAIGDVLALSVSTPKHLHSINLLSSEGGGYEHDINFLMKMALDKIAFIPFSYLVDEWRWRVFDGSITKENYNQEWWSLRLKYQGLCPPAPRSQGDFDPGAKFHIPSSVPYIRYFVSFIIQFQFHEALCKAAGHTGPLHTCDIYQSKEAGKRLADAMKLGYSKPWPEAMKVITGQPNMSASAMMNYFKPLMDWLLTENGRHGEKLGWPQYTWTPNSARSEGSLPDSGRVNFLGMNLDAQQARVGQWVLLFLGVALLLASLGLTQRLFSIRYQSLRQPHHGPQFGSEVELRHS
Experimental: Inhibitory activities of peptides PepTry and PepChy and BTCI against ACE were performed according to Hayakari, et al. (1978) using the synthetic substrate hippuryl-L-histidyl-L-leucine (HHL)[71]. Briefly, ACE stock solution was obtained from rabbit lung in 10 mM sodium phosphate buffer, pH 8.3, and BTCI and peptides stock solutions were prepared in MilliQ water (m/v). Concentration of BTCI was estimated from spectrophotometric absorbance at 280 nm based A2801% = 8.23. Concentration of PepTry and PepChy were estimated according to Eq. 1. BTCI and peptides were diluted in 10 mM sodium phosphate buffer pH 8.3 to obtain concentrations ranging from 0 to 600 µM. Ten µL peptide solutions were pre-incubated with 10 µL of ACE containing 0.5 M NaCl at 37 °C for 10 min. […] The enzymatic reaction was terminated by adding a mixture containing 550 µL of 100 mM sodium phosphate pH 8.3 and 332.5 µL of 3% (m/v) 2,4,6-trichloro-s-triazine (TT) (in dioxane). The mixture was incubated for 5 min. at room temperature and then centrifuged at 1000 g for 10 min at 4 °C. The absorbance values of supernatants containing hippuric acid liberated from HHL were recorded at 382 nm using the Jasco Spectrophotometer V-530 (Jasco Analytical Instruments, Tokyo, Japan). IC50 values for peptides and BTCI were calculated from nonlinear regression curve of ACE residual activity (%) versus inhibitor concentration (µM) (BTCI, PepTry and PepChy) using Origin software (OriginLab Corporation, USA). The control was prepared containing only the substrate without enzyme solution. Assays were performed in triplicate.

chymotrypsin [2] = biological target: T2, chymotrypsin (Bos taurus, UniProt P00766); assay: Inhibition of chymotrypsin, residual activity with GPNA substrate; assay type: biochemical; conditions: pH 7.6, from fitted inhibition curves (GRAFIT), read-out: Inhibition constant Ki against chymotrypsin
Experimental: (§1) The inhibitory activities of BTCI, PepTry and PepChy against trypsin and chymotrypsin activities were assayed using the substrates Na-benzoyl-DL-arginine-p-nitroanilide (BAPNA) and n-glutaryl-L-phenylalanine-p-nitroanilide (GPNA), respectively (Sigma)[19],[39]. Enzymatic assays were performed in 50 mM Tris-HCl, CaCl2 20 mM pH 7.6 for chymotrypsin or pH 8.2 for trypsin. Forty μL of BTCI and PepTry (0 to 20 μM) and BTCI and PepChy (0 to 50 μM) were incubated with 40 μL of trypsin (2.57 µM) or chymotrypsin (28.60 µM), respectively, in a 96-well plate at room temperature for 15 minutes. Then, 200 μL BAPNA (0.064 mg/mL) or GPNA (0.8 mg/mL) were added. The reaction was stopped by addition of 30 μL 30% acetic acid (v/v). Enzymatic hydrolysis of the substrate was evaluated by recording the absorbance at 410 nm. The residual activities of the enzymes, in the presence of inhibitors, were estimated considering the free enzyme activity to be 100%. Inhibition constants of the enzyme-inhibitor complexes, Ki, were calculated from fitted inhibition curves[70] using the GRAFIT program version 3 (Erithacus Software, Horley, Surrey, United Kingdom).

trypsin [3] = biological target: T3, trypsin (Bos taurus, UniProt P00760); assay: Inhibition of trypsin, residual activity with BAPNA substrate; assay type: biochemical; conditions: pH 8.2, from fitted inhibition curves (GRAFIT), read-out: Inhibition constant Ki against trypsin
T3 sequence (P00760 24-246): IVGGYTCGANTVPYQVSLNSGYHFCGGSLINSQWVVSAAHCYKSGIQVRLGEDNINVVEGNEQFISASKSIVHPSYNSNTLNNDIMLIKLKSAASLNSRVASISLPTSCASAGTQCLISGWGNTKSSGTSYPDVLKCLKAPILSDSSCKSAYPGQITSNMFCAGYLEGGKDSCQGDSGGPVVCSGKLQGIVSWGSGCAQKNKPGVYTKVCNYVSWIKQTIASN
Experimental: as §1

chymotrypsin [4] = biological target: T2, chymotrypsin; conditions: literature value; read-out: Inhibition constant Ki against chymotrypsin; cited from earlier work
Experimental: (§2) The inhibitory activities of BTCI and its derived peptides, PepTry and PepChy, were evaluated through the residual enzymatic activity of serine proteases trypsin and chymotrypsin in the presence of increasing concentrations of BTCI and its derived peptides (Fig. 2A–D). In the absence of BTCI and peptides, the proteases cleave BAPNA/GPNA substrates releasing the yellow-colored p-nitroanilide product corresponding to an enzymatic activity of 100%[39]. In the presence of BTCI and peptides, a gradual decay of the protease activities is observed. BTCI at approximately 6 µM and 40 µM inhibits trypsi ...

trypsin [5] = biological target: T3, trypsin; conditions: literature value; read-out: Inhibition constant Ki against trypsin; cited from earlier work
Experimental: as §2

inhibition at 100 µM [1]: ~98%
IC50 [1]: 24.7 ± 1.1 µM
Ki (chymotrypsin [2]): 121 µM
Molecule: CC[C@H](C)[C@@H]1NC(=O)[C@H](CO)NC(=O)[C@H](Cc2ccccc2)NC(=O)[C@H]([C@@H](C)O)NC(=O)[C@@H](N)CSSC[C@@H](C(=O)O)NC(=O)[C@H](CCC(N)=O)NC(=O)[C@H](C)NC(=O)[C@@H]2CCCN2C1=O [PepChy] (H-CTFSIPAQC-OH; disulfide 1-9)

inhibition at 100 µM [1]: ~98%
IC50 [1]: 24.4 ± 1.1 µM
Ki (trypsin [3]): 0.119 µM
Molecule: CC[C@H](C)[C@@H]1NC(=O)[C@H](CO)NC(=O)[C@H](CCCCN)NC(=O)[C@H]([C@@H](C)O)NC(=O)[C@@H](N)CSSC[C@@H](C(=O)O)NC(=O)[C@H](CCC(N)=O)NC(=O)[C@@H]2CCCN2C(=O)[C@@H]2CCCN2C1=O [PepTry] (H-CTKSIPPQC-OH; disulfide 1-9)

Molecule: BTCI: Bowman-Birk protease inhibitor purified from Vigna unguiculata (Cowpea) seeds; small protein, 9071 Da, seven disulfide bonds
Ki (chymotrypsin [4]): 0.115 µM

IC50 [1]: 54.6 ± 2.9 µM
B1: BTCI: Bowman-Birk protease inhibitor purified from Vigna unguiculata (Cowpea) seeds; small protein, 9071 Da, seven disulfide bonds (protein)
chain: SGHHEDSTDEASESSKPCCDRCECTKSIPPQCRCSDVRLNSCHSACKSCACTFSIPAQCFCGDINDFCYKPCKSSHSDDDDWN
modifications: seven intramolecular disulfide bonds; native protein purified from seeds (9071.6 Da)
Ki (trypsin [5]): 0.0059 µM

From PMC7363796, “Blood pressure-lowering effects of a Bowman-Birk inhibitor and its derived peptides in normotensive and hypertensive rats” (Scientific Reports, 2020)
